Results taken from patent publication US4287191A, “Novel salicylanilides and microbiocidal compositions and uses thereof” (The Research Foundation of State University of New York, priority 1980, dated 1981).
Converted amounts (≈) assume the structure as drawn. Where two headings read alike, the source gives them in different places.

Experiments:
A.naeslundii = assay: Plaque growth inhibition in vitro on bovine tooth slabs, A.naeslundii; type: cell-based, Actinomyces naeslundii; conditions: for IC50: Actinomyces naeslundii, 2 min slab exposure, about 24 h incubation, anaerobic, reliability + or -80% or better
Method: (§1) The composition prepared in example 2 above is tested in vitro for plaque inhibition in comparison with prior art compounds. The test used is set forth in detail in Comparison of Antiplaque Agents Using an In Vitro Assay Reflecting Oral Conditions by R. T. Evans et al, Journal of Dental Research, June 1977.
(§2) In summary bovine mandibles, obtained immediately after slaughter, are cut into 4×8 mm slabs and sterilized in a 0.15 M NaCl solution buffered at a pH of 7.5 with 0.02 M sodium phosphate (PBS soln.) Before use the slabs are coated with sterile saliva and then rinsed twice in sterile PBS. The slabs are then placed in small plastic petri dishes containing various concentrations of the compositions to be tested. The test solution used in accordance is a solution of the composition in a mixture of 20% by volume of ethanol, 40% by volume of propylene glycol and 40% by volume of a pH 8 aqueous buffer solution containing mono and di sodium phosphates. The slabs are left in the solution of the composition for two minutes and then rinsed in sterile PBS solution. After rinsing, each slab is placed in a 10×75 mm cotton stoppered glass culture tube containing 1 ml of sucrose-broth culture medium which is then innoculated with a 24 hour culture of the desired microorganism standardized to an optical density (OD) 540 of 1.0 for A. naeslundii and S. sanguis and of 0.75 for A. viscosus and S. mutans. 50 μl of the inoculation medium is used. A. viscosus is incubated under aerobic conditions and the others are incubated under anaerobic conditions (5% CO2 and 95% H2). After incubation for about 24 hours the nonadherent organisms are removed and the tube is rinsed twice with 0.5 ml of PBS and the washings combined with the nonadherent organisms.
(§3) The tooth slabs are then transferred to 1 ml of 0.1 N NaOH and 1 ml of 0.1 N NaOH is also added to the glass culture tubes. The slabs and tubes are then sonically agitated, if necessary to suspend the adherent organisms. The optical density of each of the three fractions is then measured on a spectophotometer. The tests are repeated with varying concentrations of the compositions being tested until growth inhibition curves can be developed. The 50% growth inhibition dosages (ID50) are then determined with a reliability of + or -80% or better.

[1] = Acute oral toxicity of AN-10 (single dose, gavage); type: in vivo
Method: Sixteen female white rats averaging 265 grams in weight were fasted overnight and divided into four groups of four animals each. In one group each animal received, by gavage tube, 4 ml of an aqueous solution of 1% methylcellulose, the drug delivery vehicle. This group was the control group. The remaining three groups received doses of 50, 750, and 2000 mg/kg of AN-10 in 4-ml aqueous suspension, respectively.
This animal had received the 50 mg/kg dose.
From this experiment it can be concluded that the LD50 for AN-10 by the single dose oral route is greater than 2000 mg/kg in Osborne-Mendel white rats.

A.viscosus [2] = assay: Bactericidal effects against established dental plaque (nichrome wires), A.viscosus; type: cell-based; conditions: Actinomyces viscosus, 2 min, read-out: Minimum Concentration Required for Complete Bactericidal Effect
Method: (§4) In vitro plaques are grown on no. 20 nichrome wires by fixing the wires to culture tube closures to suspend the wires into a complex culture medium supplemented with 5% by wt of sucrose and 0.005% sodium carbonate. Separate cultures are initially inoculated with A.viscosus and S.mutans and the wires are transferred daily to fresh medium until the wire-adherent microorganisms form well established plaques. All cultures are incubated at 37 degrees C. Plaque coated wires are then immersed in a solution of composition to be tested. The compositions tested are AN-10 and Chlorhexidine. The immersion time is two minutes. The solution in which the composition is dissolved is the same solution used to dissolve the composition in the previous example. The plaque is then rinsed with distilled water and transferred to fresh medium. The lack of growth in the fresh medium is considered as an indication that the microorganisms have been killed. Further plaque coated wires are treated as previously described until sufficient information is obtained to determine the minimum concentration of composition required to kill the microorganisms.

S.mutans [3] = assay: Plaque growth inhibition in vitro on bovine tooth slabs, S.mutans; type: cell-based, Streptococcus mutans; conditions: for IC50: Streptococcus mutans, 2 min slab exposure, about 24 h incubation, anaerobic, reliability + or -80% or better
Method: as §1, §2, §3

S.sanguis = assay: Plaque growth inhibition in vitro on bovine tooth slabs, S.sanguis; type: cell-based, Streptoccus sanguis; conditions: for IC50: 2 min slab exposure, about 24 h incubation, anaerobic, reliability + or -80% or better; for % Inhibition @ Mol.Conc.: @ 1 × 10^-3 Mol.Conc.
Method: as §1, §2, §3

Staphylococcus aureus = assay: Minimum concentration to completely inhibit growth, Staphylococcus aureus; type: cell-based; conditions: procedure of Example 6
Method: AN-10 is tested for effectiveness against the bacterium Staphylococcus aureus in accordance with the procedure set forth in Example 6.

A.viscosus [4] = assay: Plaque growth inhibition in vitro on bovine tooth slabs, A.viscosus; type: cell-based, Actinomyces viscosus; conditions: for IC50: Actinomyces viscosus, 2 min slab exposure, about 24 h incubation, aerobic, reliability + or -80% or better
Method: as §1, §2, §3

S.mutans [5] = assay: Bactericidal effects against established dental plaque (nichrome wires), S.mutans; type: cell-based; conditions: Streptococcus mutans, 2 min, read-out: Minimum Concentration Required for Complete Bactericidal Effect
Method: as §4

Actinomyces viscosus = assay: Minimum concentration which will completely inhibit growth, Actinomyces viscosus; type: cell-based; conditions: A.viscosus, growth medium, read-out: Min. Conc. (minimum concentration which will completely inhibit growth)
S. mutans = assay: Minimum concentration which will completely inhibit growth, S. mutans; type: cell-based; conditions: Streptococcus mutans, procedure of Example 6
Method: 5-n-octanoyl-2',3',4',5',6'pentafluorosalicylanilide is tested for effectiveness against S. mutans essentially in accordance with the procedure of Example 6.

[6] = background statement; cited from earlier work
[7] = A.viscosus established plaque, immersion time two minutes
[8] = S.mutans established plaque, immersion time two minutes

**Q.** What does the source list for `CCCCCCCCCC(=O)c1ccc(O)c(C(=O)Nc2ccc([N+](=O)[O-])cc2)c1` [AN-10, 5-n-decanoyl-4'-nitrosalicylanilide]?
**A.** % Inhibition @ Mol.Conc. (A.naeslundii; @ 3.3 × 10^-4 Mol.Conc.): 96%; IC50 (A.naeslundii; read-out: ID50 Adherent Growth): 43 µM; IC50 (A.naeslundii; read-out: ID50 Total Growth): 83 µM; deaths within the first week following single dose ([1]; 50, 750 and 2000 mg/kg oral, four rats each, the one death (50 mg/kg) attributed to trauma of administration): only one animal died; LD50 ([1]; rat, in vivo, single dose oral route, female Osborne-Mendel white rats): > 2000 mg/kg; MBC (A.viscosus [2]; [7]): 125 µg/mL (≈ 303 µM); % Inhibition @ Mol.Conc. (S.mutans [3]; @ 1 × 10^-3 Mol.Conc.): 59%; IC50 (S.mutans [3]; read-out: ID50 Adherent Growth): 23000 µM; IC50 (S.mutans [3]; read-out: ID50 Total Growth): 1600 µM; IC50 (S.sanguis; read-out: ID50 Adherent Growth): 670 µM; IC50 (S.sanguis; read-out: ID50 Total Growth): 370 µM; % Inhibition @ Mol.Conc. (S.sanguis): 86%; MIC (Staphylococcus aureus): < 10 µg/mL; % Inhibition @ Mol.Conc. (A.viscosus [4]; @ 1 × 10^-4 Mol.Conc.): 96%; IC50 (A.viscosus [4]; read-out: ID50 Adherent Growth): 70 µM; IC50 (A.viscosus [4]; read-out: ID50 Total Growth): 73 µM; MBC (S.mutans [5]; [8]): 62.5 µg/mL (≈ 152 µM)

**Q.** Which MIC (Actinomyces viscosus) does the source give for `CCCCCCCCCC(=O)c1ccc(O)c(C(=O)Nc2ccc(Br)cc2)c1` [5-n-decoyl-4'-bromosalicylanilide] here?
**A.** The MIC was 0.125 µg/mL (≈ 0.28 µM).

**Q.** Which MIC (S. mutans) does the source give for `CCCCCCCC(=O)c1ccc(O)c(C(=O)Nc2c(F)c(F)c(F)c(F)c2F)c1` [5-n-octanoyl-2',3',4',5',6'pentafluorosalicylanilide] here?
**A.** Its MIC is roughly 0.5 µg/mL (≈ 1.16 µM).

**Q.** With `CCCCCCCC(=O)c1ccc(O)c(C(=O)Nc2ccc([N+](=O)[O-])cc2)c1` [5-n-octoyl-4'-nitrosalicylanilide] as the compound, how does the MIC (Actinomyces viscosus) read?
**A.** Its MIC is 0.125 µg/mL (≈ 0.325 µM).

**Q.** With tetrachlorosalicylanilide as the compound, how does the “allergic reactions in man” value [6] read?
**A.** The value was “allergic reactions in man”.

**Q.** For `[H]/N=C(\N/C(=N/[H])NCCCCCCNC(=N)NC(=N)Nc1ccc(Cl)cc1)Nc1ccc(Cl)cc1` [CLHX, Chlorhexidine], which “% Inhibition @ Mol.Conc.” value (A.naeslundii; @ 1 × 10^-3 Mol.Conc.) is on record?
**A.** The value was 78%.

**Q.** What about the IC50 (A.naeslundii; read-out: ID50 Adherent Growth) of the same compound?
**A.** The IC50 was 5100 µM.

**Q.** What about the IC50 (A.naeslundii; read-out: ID50 Total Growth) of the same compound?
**A.** Its IC50 is 4400 µM.

**Q.** And the MBC (A.viscosus [2]; [7])?
**A.** The MBC was 500 µg/mL (≈ 989 µM).

**Q.** What about the “% Inhibition @ Mol.Conc.” value (S.mutans [3]; @ 1 × 10^-3 Mol.Conc.) of the same compound?
**A.** The value was 95%.

**Q.** What about the IC50 (S.mutans [3]; read-out: ID50 Adherent Growth) of the same compound?
**A.** Its IC50 is 97 µM.

**Q.** And the IC50 (S.mutans [3]; read-out: ID50 Total Growth)?
**A.** The IC50 was 86 µM.

**Q.** What about the IC50 (S.sanguis; read-out: ID50 Adherent Growth) of the same compound?
**A.** Its IC50 is 85000 µM.

**Q.** What about the IC50 (S.sanguis; read-out: ID50 Total Growth) of the same compound?
**A.** Its IC50 is 390 µM.

**Q.** And the “% Inhibition @ Mol.Conc.” value (S.sanguis)?
**A.** Its value is 70%.

**Q.** And the “% Inhibition @ Mol.Conc.” value (A.viscosus [4]; @ 1 × 10^-3 Mol.Conc.)?
**A.** Its value is 85%.

**Q.** And the IC50 (A.viscosus [4]; read-out: ID50 Adherent Growth)?
**A.** The IC50 was 29 µM.

**Q.** What about the IC50 (A.viscosus [4]; read-out: ID50 Total Growth) of the same compound?
**A.** The IC50 was 23 µM.

**Q.** What about the MBC (S.mutans [5]; [8]) of the same compound?
**A.** Its MBC is 250 µg/mL (≈ 495 µM).

**Q.** Which “% Inhibition @ Mol.Conc.” value (A.naeslundii; @ 1.5 × 10^-3 Mol.Conc.) does the source give for `O=C(Nc1ccc(Br)cc1)c1cc(Br)cc(Br)c1O` [TBS, Tribromosalan] here?
**A.** Its value is 86%.

**Q.** What about the MBC (A.viscosus [2]) of the same compound?
**A.** The MBC was 500 µg/mL (≈ 1110 µM).

**Q.** And the “% Inhibition @ Mol.Conc.” value (S.mutans [3]; @ 1.5 × 10^-3 Mol.Conc.)?
**A.** Its value is 46%.

**Q.** And the “% Inhibition @ Mol.Conc.” value (S.sanguis)?
**A.** Its value is 46%.

**Q.** What about the “% Inhibition @ Mol.Conc.” value (A.viscosus [4]; @ 1 × 10^-3 Mol.Conc.) of the same compound?
**A.** Its value is 53%.

**Q.** And the MBC (S.mutans [5])?
**A.** The MBC was 1000 µg/mL (≈ 2220 µM).

**Q.** Which MIC (Actinomyces viscosus) does the source give for `CCCCCCCCCCCC(=O)c1ccc(O)c(C(=O)Nc2ccc([N+](=O)[O-])cc2)c1` [5-n-dodecoyl-4'-nitrosalicylanilide] here?
**A.** Its MIC is 0.05 µg/mL (≈ 0.113 µM).

**Q.** For `CCCCCCCCCCCC(=O)c1ccc(O)c(C(=O)Nc2cccc(C(F)(F)F)c2)c1` [5-n-dodecoyl-3'-trifluoromethylsaliclyanilide], which MIC (Actinomyces viscosus) is on record?
**A.** Its MIC is 0.5 to 1 µg/mL (≈ 1.08 to 2.16 µM).

**Q.** With `CCCCCCCCCCCC(=O)c1ccc(O)c(C(=O)Nc2ccc(Br)cc2)c1` [5-n-dodecoyl-4'-bromosalicylanilide] as the compound, how does the MIC (Actinomyces viscosus) read?
**A.** The MIC was 0.05 µg/mL (≈ 0.105 µM).

**Q.** Which “% Inhibition @ Mol.Conc.” value (S.mutans [3]; @ 2 × 10^-3 Mol.Conc.) does the source give for `O=C(Nc1cccc(C(F)(F)F)c1)c1cc(Br)cc(Br)c1O` [SBF-1, Fluorophene] here?
**A.** Its value is 86%.

**Q.** What about the “% Inhibition @ Mol.Conc.” value (A.viscosus [4]; @ 3.3 × 10^-3 Mol.Conc.) of the same compound?
**A.** Its value is 65%.
